Results: the supplement of paper PMC8671470

Tested on: HEL
Experiment: cell viability (% survival relative to DMSO control, bortezomib = 0%); higher = less cytotoxic
Conditions: 10 nM; 72 h
Summary of the method: (§1)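 Percent survival is reported as the mean of duplicate wells. Cells from 10 AML and 5 CML lines were plated in 384-well plates containing compounds at 1, 10, 100, 1000 or 10000 nM and kept for 72 h at 37 °C in 5% CO2. Readout used CellTiter-Glo luminescence, scaled so that vehicle equals 100% and a 10 µM positive control equals 0%.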

| Structure (SMILES) | cell viability [%] |
| --- | --- |
| OC[C@H]1O[C@@H](n2cnc3c2N=CNC[C@H]3O)C[C@@H]1O [Pentostatin] | 89.4 |
| CC(C)CC(=O)N[C@H](C(=O)N[C@H](C(=O)N[C@@H](CC(C)C)[C@@H](O)CC(=O)N[C@@H](C)C(=O)N[C@@H](CC(C)C)[C@@H](O)CC(=O)O)C(C)C)C(C)C [Pepstatin A] | 88.3 |
| Cc1cccc(Nc2cc(Cl)nc(SCC(=O)O)n2)c1C [Pirinixic acid] | 100 |
| C[C@]12C=CC(=O)C=C1CC[C@@H]1[C@@H]2[C@@H](O)C[C@@]2(C)[C@H]1CC[C@]2(O)C(=O)CO [Prednisolone] | 114 |
| C=CCN(C)CCCCCCOc1ccc(C(=O)c2ccc(Br)cc2)c(F)c1.O=C(O)/C=C/C(=O)O [Ro 48-8071 fumarate] | 102 |

Same assay, conditions: 100 nM; 72 h

| Structure (SMILES) | cell viability [%] |
| --- | --- |
| CN(Cc1cnc2nc(N)nc(N)c2n1)c1ccc(C(=O)N[C@@H](CCC(=O)O)C(=O)O)cc1 [Methotrexate] | 27.9 |
| COC(=O)c1cc2c(C(F)(F)F)cc(-c3ccccc3)cc2n1O [NHI-2] | 90.4 |
| CCCCCCCC/C=C\CCCCCCCC(=O)Nc1ccccc1 [Octadec-9-Enoic Acid Phenylamide] | 92.3 |
| CC[C@H](C)[C@H](N)C(=O)N1CCSC1 [P32/98] | 109 |
| CC(=O)Nc1nc(C)c(-c2ccc(Cl)c(S(=O)(=O)NCCO)c2)s1 [PIK93] | 96.8 |
| OC[C@H]1O[C@@H](n2cnc3c2N=CNC[C@H]3O)C[C@@H]1O [Pentostatin] | 102 |
| CC(C)CC(=O)N[C@H](C(=O)N[C@H](C(=O)N[C@@H](CC(C)C)[C@@H](O)CC(=O)N[C@@H](C)C(=O)N[C@@H](CC(C)C)[C@@H](O)CC(=O)O)C(C)C)C(C)C [Pepstatin A] | 95.8 |
| Cc1cccc(Nc2cc(Cl)nc(SCC(=O)O)n2)c1C [Pirinixic acid] | 109 |
| C[C@]12C=CC(=O)C=C1CC[C@@H]1[C@@H]2[C@@H](O)C[C@@]2(C)[C@H]1CC[C@]2(O)C(=O)CO [Prednisolone] | 109 |
| C=CCN(C)CCCCCCOc1ccc(C(=O)c2ccc(Br)cc2)c(F)c1.O=C(O)/C=C/C(=O)O [Ro 48-8071 fumarate] | 102 |

Same assay, conditions: 1000 nM; 72 h

| Structure (SMILES) | cell viability [%] |
| --- | --- |
| CN(Cc1cnc2nc(N)nc(N)c2n1)c1ccc(C(=O)N[C@@H](CCC(=O)O)C(=O)O)cc1 [Methotrexate] | 6.63 |
| COC(=O)c1cc2c(C(F)(F)F)cc(-c3ccccc3)cc2n1O [NHI-2] | 89.4 |
| CCCCCCCC/C=C\CCCCCCCC(=O)Nc1ccccc1 [Octadec-9-Enoic Acid Phenylamide] | 106 |
| CC[C@H](C)[C@H](N)C(=O)N1CCSC1 [P32/98] | 107 |
| CC(=O)Nc1nc(C)c(-c2ccc(Cl)c(S(=O)(=O)NCCO)c2)s1 [PIK93] | 74.5 |
| OC[C@H]1O[C@@H](n2cnc3c2N=CNC[C@H]3O)C[C@@H]1O [Pentostatin] | 103 |
| CC(C)CC(=O)N[C@H](C(=O)N[C@H](C(=O)N[C@@H](CC(C)C)[C@@H](O)CC(=O)N[C@@H](C)C(=O)N[C@@H](CC(C)C)[C@@H](O)CC(=O)O)C(C)C)C(C)C [Pepstatin A] | 105 |
| Cc1cccc(Nc2cc(Cl)nc(SCC(=O)O)n2)c1C [Pirinixic acid] | 104 |
| C[C@]12C=CC(=O)C=C1CC[C@@H]1[C@@H]2[C@@H](O)C[C@@]2(C)[C@H]1CC[C@]2(O)C(=O)CO [Prednisolone] | 109 |
| C=CCN(C)CCCCCCOc1ccc(C(=O)c2ccc(Br)cc2)c(F)c1.O=C(O)/C=C/C(=O)O [Ro 48-8071 fumarate] | 109 |

Same assay, conditions: 10000 nM; 72 h

| Structure (SMILES) | cell viability [%] |
| --- | --- |
| CN(Cc1cnc2nc(N)nc(N)c2n1)c1ccc(C(=O)N[C@@H](CCC(=O)O)C(=O)O)cc1 [Methotrexate] | 7.79 |
| COC(=O)c1cc2c(C(F)(F)F)cc(-c3ccccc3)cc2n1O [NHI-2] | 92.5 |
| CCCCCCCC/C=C\CCCCCCCC(=O)Nc1ccccc1 [Octadec-9-Enoic Acid Phenylamide] | 104 |
| CC[C@H](C)[C@H](N)C(=O)N1CCSC1 [P32/98] | 105 |
| CC(=O)Nc1nc(C)c(-c2ccc(Cl)c(S(=O)(=O)NCCO)c2)s1 [PIK93] | 33.1 |
| OC[C@H]1O[C@@H](n2cnc3c2N=CNC[C@H]3O)C[C@@H]1O [Pentostatin] | 142 |
| CC(C)CC(=O)N[C@H](C(=O)N[C@H](C(=O)N[C@@H](CC(C)C)[C@@H](O)CC(=O)N[C@@H](C)C(=O)N[C@@H](CC(C)C)[C@@H](O)CC(=O)O)C(C)C)C(C)C [Pepstatin A] | 95.3 |
| Cc1cccc(Nc2cc(Cl)nc(SCC(=O)O)n2)c1C [Pirinixic acid] | 101 |
| C[C@]12C=CC(=O)C=C1CC[C@@H]1[C@@H]2[C@@H](O)C[C@@]2(C)[C@H]1CC[C@]2(O)C(=O)CO [Prednisolone] | 105 |
| C=CCN(C)CCCCCCOc1ccc(C(=O)c2ccc(Br)cc2)c(F)c1.O=C(O)/C=C/C(=O)O [Ro 48-8071 fumarate] | 86.7 |

Tested on: HL-60
Experiment: as above
Conditions: 1 nM; 72 h
Summary of the method: as §1

| Structure (SMILES) | cell viability [%] |
| --- | --- |
| CN(Cc1cnc2nc(N)nc(N)c2n1)c1ccc(C(=O)N[C@@H](CCC(=O)O)C(=O)O)cc1 [Methotrexate] | 81.5 |
| COC(=O)c1cc2c(C(F)(F)F)cc(-c3ccccc3)cc2n1O [NHI-2] | 98.5 |
| CCCCCCCC/C=C\CCCCCCCC(=O)Nc1ccccc1 [Octadec-9-Enoic Acid Phenylamide] | 96.1 |
| CC[C@H](C)[C@H](N)C(=O)N1CCSC1 [P32/98] | 88.1 |
| CC(=O)Nc1nc(C)c(-c2ccc(Cl)c(S(=O)(=O)NCCO)c2)s1 [PIK93] | 119 |
| OC[C@H]1O[C@@H](n2cnc3c2N=CNC[C@H]3O)C[C@@H]1O [Pentostatin] | 99.5 |
| CC(C)CC(=O)N[C@H](C(=O)N[C@H](C(=O)N[C@@H](CC(C)C)[C@@H](O)CC(=O)N[C@@H](C)C(=O)N[C@@H](CC(C)C)[C@@H](O)CC(=O)O)C(C)C)C(C)C [Pepstatin A] | 99.7 |
| Cc1cccc(Nc2cc(Cl)nc(SCC(=O)O)n2)c1C [Pirinixic acid] | 97.2 |
| C[C@]12C=CC(=O)C=C1CC[C@@H]1[C@@H]2[C@@H](O)C[C@@]2(C)[C@H]1CC[C@]2(O)C(=O)CO [Prednisolone] | 93.2 |
| C=CCN(C)CCCCCCOc1ccc(C(=O)c2ccc(Br)cc2)c(F)c1.O=C(O)/C=C/C(=O)O [Ro 48-8071 fumarate] | 115 |

Same assay, conditions: 10 nM; 72 h

| Structure (SMILES) | cell viability [%] |
| --- | --- |
| CN(Cc1cnc2nc(N)nc(N)c2n1)c1ccc(C(=O)N[C@@H](CCC(=O)O)C(=O)O)cc1 [Methotrexate] | 32 |
| COC(=O)c1cc2c(C(F)(F)F)cc(-c3ccccc3)cc2n1O [NHI-2] | 90.3 |
| CCCCCCCC/C=C\CCCCCCCC(=O)Nc1ccccc1 [Octadec-9-Enoic Acid Phenylamide] | 105 |
| CC[C@H](C)[C@H](N)C(=O)N1CCSC1 [P32/98] | 103 |
| CC(=O)Nc1nc(C)c(-c2ccc(Cl)c(S(=O)(=O)NCCO)c2)s1 [PIK93] | 120 |
| OC[C@H]1O[C@@H](n2cnc3c2N=CNC[C@H]3O)C[C@@H]1O [Pentostatin] | 99.7 |
| CC(C)CC(=O)N[C@H](C(=O)N[C@H](C(=O)N[C@@H](CC(C)C)[C@@H](O)CC(=O)N[C@@H](C)C(=O)N[C@@H](CC(C)C)[C@@H](O)CC(=O)O)C(C)C)C(C)C [Pepstatin A] | 73.7 |
| Cc1cccc(Nc2cc(Cl)nc(SCC(=O)O)n2)c1C [Pirinixic acid] | 101 |
| C[C@]12C=CC(=O)C=C1CC[C@@H]1[C@@H]2[C@@H](O)C[C@@]2(C)[C@H]1CC[C@]2(O)C(=O)CO [Prednisolone] | 93.5 |
| C=CCN(C)CCCCCCOc1ccc(C(=O)c2ccc(Br)cc2)c(F)c1.O=C(O)/C=C/C(=O)O [Ro 48-8071 fumarate] | 88.4 |

Same assay, conditions: 100 nM; 72 h

| Structure (SMILES) | cell viability [%] |
| --- | --- |
| CN(Cc1cnc2nc(N)nc(N)c2n1)c1ccc(C(=O)N[C@@H](CCC(=O)O)C(=O)O)cc1 [Methotrexate] | 5.38 |
| COC(=O)c1cc2c(C(F)(F)F)cc(-c3ccccc3)cc2n1O [NHI-2] | 95.2 |
| CCCCCCCC/C=C\CCCCCCCC(=O)Nc1ccccc1 [Octadec-9-Enoic Acid Phenylamide] | 113 |
| CC[C@H](C)[C@H](N)C(=O)N1CCSC1 [P32/98] | 108 |
| CC(=O)Nc1nc(C)c(-c2ccc(Cl)c(S(=O)(=O)NCCO)c2)s1 [PIK93] | 84.2 |
